Assay results reported in patent US10829493B2, “Compositions and methods for treating KIT- and PDGFRA-mediated diseases” (Blueprint Medicines Corporation, priority 2019, dated 2020).
Where “and” joins values, the source holds several entries; their conditions need not be identical. Equal values may be shown once. Read-outs that look alike come from different tables or passages of the source.

How the values were obtained:
[1] = Brain penetration in rats, brain to plasma ratios (Kp,brain, Kpuu,brain); assay type: in vivo, Sprague-Dawley rats; details: for concentration at 24 h / Kp uu at 24 h: intravenous
From the text: To understand the brain penetration, brain to plasma ratios of the compounds were obtained in Sprague-Dawley (SD) rats. In vivo equilibrium distribution between blood and brain in preclinical species such as rats is a commonly used parameter to evaluate brain penetration. Kp,brain is the ratio of concentrations in brain and blood (Cbrain/Cplasma) The compound's passive diffusion characteristics, its affinity for membrane transporters at the blood-brain barrier (BBB), and the relative drug binding affinity differences between the plasma proteins and brain tissue influence the Kp,brain.
The animals received IV infusion of 1 mg/kg/hr of the compound over 24 hours via jugular vein cannulation. At 24 hours, blood was collected via tail vein bleeding or cardiac puncture (under anesthesia) and centrifuged to obtain plasma samples. Brain tissues were collected and homogenized with phosphate-buffered saline (PBS). The concentrations of the compounds were obtained in the plasma and brain homogenates by LC-MS/MS analysis.

CYP3A4 = CYP3A4 (Homo sapiens (Human), UniProt P08684); assay: CYP inhibition in human liver microsomes, CYP3A4 (midazolam/testosterone); assay type: in vitro ADME
Sequence of CYP3A4 (P08684 whole entry): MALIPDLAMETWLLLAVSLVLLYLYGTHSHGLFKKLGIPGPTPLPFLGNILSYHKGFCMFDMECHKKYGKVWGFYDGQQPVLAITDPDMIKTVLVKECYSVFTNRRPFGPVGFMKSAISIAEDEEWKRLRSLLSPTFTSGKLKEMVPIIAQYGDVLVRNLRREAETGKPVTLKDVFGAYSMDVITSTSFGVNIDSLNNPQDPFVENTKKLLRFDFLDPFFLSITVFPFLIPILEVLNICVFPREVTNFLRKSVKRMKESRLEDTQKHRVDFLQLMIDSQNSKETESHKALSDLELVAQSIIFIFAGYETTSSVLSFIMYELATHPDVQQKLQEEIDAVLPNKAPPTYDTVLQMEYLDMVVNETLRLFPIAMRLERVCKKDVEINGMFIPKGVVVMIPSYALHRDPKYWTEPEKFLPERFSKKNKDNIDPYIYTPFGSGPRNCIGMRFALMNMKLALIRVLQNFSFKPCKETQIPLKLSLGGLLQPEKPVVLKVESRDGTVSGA
Description: In vitro studies in human liver microsomes were run according the standard method. […] The samples were then analyzed by LC-MS/MS for the quantification of the probe substrate left after the reaction and the IC50 values were determined by non-linear regression. The substrates for CYP2C9, CYP2D6, CYP3A4 were diclofenac, dextromethorphan and midazolam/testosterone respectively.

[2] = Rat brain protein binding in brain homogenate, equilibrium dialysis; assay type: in vitro ADME; details: equilibrium dialysis 5 hours at 37° C., read-out: fu,brain (brain homogenate)
Description: Similarly, rat brain protein binding of 4 and 63 were also evaluated in vitro using equilibrium dialysis method. 1 μM of the compound was assessed in brain homogenate in a dialysis block for 5 hours at 37° C. Samples from the donor and receiver sides were analyzed by LC-MS/MS. Brain protein bound and unbound fractions were calculated using the equations mentions above (Equations 1 and 2). Due to extensive protein binding, 4 was diluted further 4× for the brain homogenate measurement. The fu,brain of 4 and 63 were 0.29% and 0.1% respectively.

[3] = Rat brain protein binding in rat brain slices; assay type: in vitro ADME; details: rat brain slices (300 um thick); 300 um thick rat brain slices (striatum area); read-out: fu,brain (rat brain slices)
Description: Alternatively, rat brain protein binding of compounds 4 and 63 was evaluated in vitro by employing 300 um thick rat brain slices (striatum area) in an incubation tray. The fu,brain of compounds 4 and 63 by this method was 0.329% and 0.057% respectively. In that case, the Kp,uu, brain of 4 and 63 are 0.028 and 0.044 respectively.

[4] = Monkey brain to plasma ratio (Kp, Kpuu) after iv bolus and 2-hour iv infusion; assay type: in vivo
Description: A single IV bolus dose followed by a 2-hour iv infusion of the compound was administered to the monkey (3 monkeys/compound). Blood was collected from a femoral vein predose, right after the bolus administration and at the end of the infusion. The monkey was euthanized after the infusion and brain tissue was collected. Toxicokinetic evaluation of plasma (obtained by centrifugation of blood) and brain (homogenized in a buffer) was conducted to obtain brain to plasma ratio (Kp) of the compound. Kpuu was calculated by taking into consideration the fu,plasma and fu,brain as discussed above.

[5] = Rat plasma protein binding, equilibrium dialysis; assay type: in vitro ADME; details: 100% rat plasma, equilibrium dialysis 5 hours at 37° C.; for fraction unbound at 5 h, 10 μM: read-out: Fraction unbound fu,p, rat plasma
Description: Rat plasma protein binding of 4 and 63 were evaluated in vitro using an equilibrium dialysis method. […] Samples from the donor and receiver sides were analyzed by LC-MS/MS. Plasma protein bound and unbound fractions were calculated using the following equations—d Fraction bound (fb)*(%)=100×([Donor]5h−[Receiver]5h)/[Donor]5h (Equation 1) Fraction unbound (fu),p*(%)=100−% Bound* (Equation 2) where: [Donor]5h is measured donor concentration at 5-hour; [Received]5h is measured receiver concentration at 5-hour; fb* is bound fraction determined from plasma; fu,p* is calculated unbound fraction for plasma. Warfarin and quinidine were used as positive controls.

UT-7 cells = assay: UT-7 cell proliferation with SCF stimulation as a measure of wild-type KIT activity (CellTiter-Glo); assay type: cell-based, human; details: Homo sapiens, UT7, 72 h, SCF-stimulated UT-7 cell proliferation
From the text: UT-7 Cell Proliferation with SCF Stimulation Assay as a Measure of Wild-Type KIT Activity
UT-7 cells are human megakaryoblastic leukemia cell lines that can be grown in culture with dependence on granulocyte macrophage colony stimulating factor (GM-CSF) or stem cell factor (SCF). UT-7 cells respond to SCF stimulation by activation of the KIT receptor tyrosine kinase and subsequent downstream signaling that can support cell growth and proliferation (Kuriu et al, 1999; Komatsu et al, 1991; Sasaki et al, 1995). Test compounds were assayed for their ability to inhibit SCF-stimulated proliferation of UT-7 cells.
Inhibition of SCF-stimulated UT-7 cell proliferation was assessed using the CellTiter-Glo assay that quantifies the amount of adenosine triphosphate (ATP) present, which is a readout of metabolically active cells and is directly proportional to the number of viable cells in culture. The ability of test compounds to inhibit SCF-stimulated UT-7 cell proliferation was determined using a 10-point dose curve ranging from 25 μM to 95.4 pM of test compound.
UT-7 cells were maintained in IMDM supplemented with 10% FBS, 5 ng/mL GM-CSF and 100 units/mL Penicillin-Streptomycin and grown in a 37° C. humidified tissue culture incubator. UT-7 cells were washed once with serum free, GM-CSF free IMDM. Cells were then resuspended in IMDM containing 4% FBS and 50 ng/mL SCF and seeded at 2500 cells per well in a volume of 22 μL in a 384-well microplate. A 10-point dose concentration series of test compounds (25.0 μM to 95.4 pM) were then added to the cells in a volume of 3.1 μL to each well (0.25% DMSO final concentration) and placed in a tissue culture incubator (5% CO2, 37° C.) for 72 hours. After 3-days with test compound, CellTiter-Glo reagent was prepared fresh and 25 μL of reagent was added to each well. The plate was mixed by shaking for 10 minutes at RT at 300 rpm on a plate shaker. The plate was read on an EnVision plate reader using the Ultra Sensitive Luminescence protocol for a 384-well plate.

[6] = Sprague-Dawley, rat, brain, 1 mg/kg/hr, individual rats (Rat 1-3), IV infusion 1 mg/kg/hr over 24 hours, at 24 hours, read-out: Brain Concentration
[7] = Sprague-Dawley, rat, brain, 1 mg/kg/hr, mean of 3 rats, IV infusion 1 mg/kg/hr over 24 hours, at 24 hours, read-out: Brain Concentration (ng/mL), Mean
[8] = Sprague-Dawley, rat, brain, 1 mg/kg/hr, rat, from total mean brain concentration and fu,brain (homogenate), read-out: Unbound concentration, Brain
[9] = Sprague-Dawley, rat, plasma, 1 mg/kg/hr, individual rats (Rat 1-3), IV infusion 1 mg/kg/hr over 24 hours, at 24 hours, read-out: Plasma Concentration
[10] = Sprague-Dawley, rat, plasma, 1 mg/kg/hr, mean of 3 rats, IV infusion 1 mg/kg/hr over 24 hours, at 24 hours, read-out: Plasma Concentration (ng/mL), Mean
[11] = Sprague-Dawley, rat, plasma, 1 mg/kg/hr, rat, from total mean plasma concentration and fu,p, read-out: Unbound concentration, Plasma
[12] = individual rats (Rat 1-3), IV infusion 1 mg/kg/hr over 24 hours, at 24 hours
[13] = mean of 3 rats, IV infusion 1 mg/kg/hr over 24 hours, at 24 hours
[14] = rat, unbound brain to plasma ratio, fu,brain from brain homogenate

## C[C@](N)(c1ccc(F)cc1)c1cnc(N2CCN(c3ncnn4cc(-c5cnn(CCO)c5)cc34)CC2)nc1 [Compound 4, (S)-2-(4-(4-(4-(5-(1-amino-1-(4-fluorophenyl)ethyl)pyrimidin-2-yl)piperazin-1-yl)pyrrolo[2,1-f][1,2,4]triazin-6-yl)-1H-pyrazol-1-yl)ethanol]
[1]; [6]
  concentration at 24 h: 152 ng/mL
[1]; [7]
  concentration at 24 h: 183 ng/mL
[1]; [8]
  concentration at 24 h: 0.53 ng/mL
[1]; [9]
  concentration at 24 h: 859 ng/mL
[1]; [10]
  concentration at 24 h: 1050 ng/mL
[1]; [11]
  concentration at 24 h: 21.9 ng/mL
[1]; [12]
  Brain Concentration: 188 ng/mL and 208 ng/mL
  Kp, brain: 0.177 and 0.168 and 0.174
  Plasma Concentration: 1120 ng/mL and 1180 ng/mL
[1]; [13]
  Kp, brain, Mean: 0.17 and 0.174
[1]; rat, fu,brain from brain slices
  Kp,uu, brain (brain slice method): 0.028
[1]; [14]
  Kpuu,brain: 0.024
CYP3A4; as measured according to Example 5, substrate not stated (embodiment 14), read-out: IC50 for CYP3A4
  IC50: < 10 µM
CYP3A4; pooled human liver microsomes, substrate midazolam, read-out: CYP3A4 IC50 (μM) midazolam
  IC50: ≥ 10 µM
CYP3A4; pooled human liver microsomes, substrate testosterone, read-out: CYP3A4 IC50 (μM) testosterone
  IC50: ≥ 10 µM
[2]
  fraction unbound at 5 h, 1 μM: 0.0029
[3]
  fraction unbound: 0.00329
[4]; IV bolus followed by 2-hour iv infusion
  Kp (Brain:Plasma): 0.09
[4]; calculated with fu,plasma and fu,brain
  Kpuu: 0.01
[5]
  Fraction bound (fb), rat plasma: 97.92%
  fraction unbound at 5 h, 10 μM: 0.0208
UT-7 cells
  IC50: < 90 nM

## CCn1cc(-c2cc3c(N4CCN(c5ncc([C@@](C)(N)c6ccc(F)cc6)cn5)CC4)ncnn3c2)cn1 [Compound 63, reference compound]
[1]; [6]
  concentration at 24 h: 1920 ng/mL
[1]; [7]
  concentration at 24 h: 1700 ng/mL
[1]; [8]
  concentration at 24 h: 1.7 ng/mL
[1]; Sprague-Dawley, rat, brain, 1 mg/kg/hr, rat, fu,brain from brain slices, read-out: Kp,uu, brain (brain slice method)
  Kp uu at 24 h: 0.044
[1]; Sprague-Dawley, rat, brain, 1 mg/kg/hr, rat, unbound brain to plasma ratio, fu,brain from brain homogenate, read-out: Kpuu,brain
  Kp uu at 24 h: 0.84
[1]; Sprague-Dawley, rat, brain, iv, 1 mg/kg/hr, mean of 3 rats, IV infusion 1 mg/kg/hr over 24 hours, at 24 hours, read-out: Kp, brain, Mean
  Kp at 24 h: 1.8
[1]; [9]
  concentration at 24 h: 1140 ng/mL
[1]; [10]
  concentration at 24 h: 1010 ng/mL
[1]; [11]
  concentration at 24 h: 2.02 ng/mL
[1]; [12]
  Brain Concentration: 1890 ng/mL and 1300 ng/mL
  Kp, brain: 1.68 and 2.40 and 1.18
  Plasma Concentration: 789 ng/mL and 1100 ng/mL
[1]; [13]
  Kp, brain, Mean: 1.75
[1]; [14]
  Kpuu,brain: 0.84
[2]
  fraction unbound at 5 h, 1 μM: 0.001
[3]
  fraction unbound: 0.00057
[4]; brain, IV bolus followed by 2-hour iv infusion
  Kp at 2 h: 1.86
[4]; intravenous, calculated with fu,plasma and fu,brain
  Kp uu at 2 h: 0.92
[5]
  Fraction bound (fb), rat plasma: 99.8%
  fraction unbound at 5 h, 10 μM: 0.002
UT-7 cells
  IC50: 150 to 200 nM
